According to US6268391A, “Benzylidene-1,3-dihydro-indol-2-one derivatives a receptor tyrosine kinase inhibitors, particularly of Raf kinases” (Glaxo Wellcome Inc., priority 1997, dated 2001):
Read-outs that look alike come from different tables or passages of the source.

How the values were obtained:
Human cRaf1 = target: T1, Human cRaf1 (Homo sapiens, UniProt P04049); test: Raf kinase assay (cRaf1 assay / Raf/MEK cascade assay); assay type: biochemical
T1 construct: poly-histidine (C); made in house

[1] = test system: SW620 (human colon carcinoma cell line); test: Cell Based Efficacy (MTT Assay), SW620; conditions: SW-620, 72 hours with compound, 50% inhibitory concentration
Experimental: (§1) The potency of compounds of the invention are tested for their ability to inhibit cell proliferation and cell viability. The metabolic conversion of 3-(4,5-dimethylthiazol-2-yl)-2,5-diphenyltetrazolium bromide (MTT, Sigma #M2128) to a reduced form is a commonly used measure of cellular viability. Following is the procedure:
(§2) Cells are maintained in 75 cm^2 tissue culture flasks until ready for use. The cells are grown and plated for the assay in Dulbecco's modified Eagle's media containing 10% fetal bovine serum. For example, the following cell lines can be used: a) human foreskin fibroblasts (HFF), b) HT29 (human colon carcinoma cell line), c) MDA-MB-468 (human breast carcinoma cell line), d) RKO (human colon adenocarcinoma cell line), e) SW620 (human colon carcinoma cell line), f) A549 (human lung carcinoma cell line), and g) MIA PACA (human pancreatic carcinoma cell line). Cells are maintained at 37° C. in 10% CO2, 90% humidified air. Cells are plated in 96-well tissue culture plates at the densities listed below. 100 μL of cell suspension is added to each well of the 96-well plate except the top row of the plate which contains no cells and serves as a reference for the spectrophotometer. […]
(§3) Cells are incubated overnight in Dulbecco's modified Eagle's media containing 10% fetal bovine serum at 37° C. in 10% CO2, 90% humidified air prior to dosing. Cells are dosed in 10 sequential 3-fold dilutions starting at 30 uM depending upon the solubility of the compound. Compounds with solubilities of less than 30 uM are dosed at the highest soluble concentration. Stock solutions of compounds are made in 100% dimethyl sulfoxide (DMSO). Stock solutions are diluted in Dulbecco's modified Eagle's media containing 100 ug/mL gentamicin and 0.3 to 0.6% DMSO at the twice the highest concentration to be placed on the cells. If compounds have been dissolved in DMSO the final concentration of DMSO on the cells is kept below 0.3%. 3-fold serial dilutions are performed on each compound to prepare 10 concentrations of the compound for dosing. 100 μL of diluted compound is added to the 100 μL of media currently on the dish. For each concentration of compound, 2-4 replicate wells are prepared.
(§4) Cells are returned to incubator and allowed to proliferate in the presence of compound for 72 hours before addition of MTT. MTT is prepared in phosphate buffered saline (Irvine Scientific #9240) at a concentration of 2mg/mL. 50 μL per well of MTT solution is added to the 200 μL of media to yield a final concentration of 0.4 mg/mL and plates are returned to the incubator for 4 hours. After 4 hours incubation the media, compound and MTT mixture is aspirated from the plates and 100 μL of 100% DMSO is added to each well in addition to 25 μL of Sorenson's Buffer (0.1M glycine, 0.1M NaCl, pH 10.5). Quantitation of metabolic reduction of MTT in each plate is performed by reading optical density at 570 nm wavelength on a Molecular Devices UVmax microplate reader. Growth inhibition curves and 50% inhibitory concentrations are determined using Microsoft Excel.
(§5) Table 4 illustrates the inhibitory activity of compounds of the present invention against a representative kinase (raf) and the cytotoxicity of compounds of the present invention against a broad range of human tumor cell lines.

[2] = test system: MIA PACA (human pancreatic carcinoma cell line); test: Cell Based Efficacy (MTT Assay), MIA PACA; conditions: MIA PaCa-2, 72 hours with compound, 50% inhibitory concentration
Experimental: as §1
(§6) Cells are maintained in 75 cm^2 tissue culture flasks until ready for use. The cells are grown and plated for the assay in Dulbecco's modified Eagle's media containing 10% fetal bovine serum. For example, the following cell lines can be used: a) human foreskin fibroblasts (HFF), b) HT29 (human colon carcinoma cell line), c) MDA-MB-468 (human breast carcinoma cell line), d) RKO (human colon adenocarcinoma cell line), e) SW620 (human colon carcinoma cell line), f) A549 (human lung carcinoma cell line), and g) MIA PACA (human pancreatic carcinoma cell line). Cells are maintained at 37° C. in 10% CO2, 90% humidified air. Cells are plated in 96-well tissue culture plates at the densities listed below. 100 μL of cell suspension is added to each well of the 96-well plate except the top row of the plate which contains no cells and serves as a reference for the spectrophotometer.
MIA PACA 3000 cells/well
as §3, §4, §5

[3] = test system: MDA-MB-468 (human breast carcinoma cell line); test: Cell Based Efficacy (MTT Assay), MDA-MB-468; conditions: 72 hours with compound, 50% inhibitory concentration
Experimental: as §1, §2, §3, §4, §5

PC-3 (prostate) = test: Cell Based Efficacy (MTT Assay), PC-3; conditions: Homo sapiens; 72 hours with compound; 50% inhibitory concentration
Experimental: as §1, §6, §3, §4, §5

[4] = test system: HT29 (human colon carcinoma cell line); test: Cell Based Efficacy (MTT Assay), HT29; conditions: HT-29, 72 hours with compound, 50% inhibitory concentration
Experimental: as §1, §6, §3, §4, §5

HT-29 xenograft = test: Anti-tumor study in mice, HT-29 xenograft; assay type: in vivo
Experimental: (§7) Mice are acquired from Taconic Farms and are maintained in Microisolator cages at 72±2° F. with a 12 hour light/dark cycle. Animals are housed at 4 mice per cage (28×17×12 cm ) and are given food and water ad libitum. Animals are numbered through the use of an ear punch or tail tattoo. All animal handling is done in a laminar flow hood.
(§8) Solid tumors are measured by caliper measurement through the skin. Caliper measurements are typically made twice weekly. Tumor weight is calculated using the equation (length×width^2 /2)=mg tumor weight.
(§9) Compounds are prepared in a vehicle consisting of DMSO, Cremophore and PBS.
Drug therapy begins when the average tumor size is approximately 40-50 mg, which usually is day 7 after implant. The dose schedule consists of one dose/day for 5 consecutive days. Drugs are administered at 3 or 4 dose-levels based upon the previously-determined maximally tolerated dose. A vehicle control group is also included. Drugs may be administered by either i.v., i.p., s.c., or oral (p.o.) transdermal routes or other alternative routes. Drugs may be administered via tail vein infusion. The injection volume administered for each mouse is usually 0.01-0.02 mL/g of body weight. In the case of i.v. injections and tail vein infusion animals are restrained in a Broome restrainer during handling. Animal are fasted overnight prior to p.o. dosing. […]

SW620 xenograft = test: Anti-tumor study in mice, SW620 xenograft; assay type: in vivo; conditions: 50 mg/kg
Experimental: as §7
SW620, available from the American Type Culture Collection, are grown in media consisting of RPMI 1640 with fetal bovine serum (10%), sodium pyruvate (1.0 mM) and glutamine (2.0 mM). Cells are incubated at 37° C. in 5% CO2. Cells are harvested with trypsin (0.05%), centrifuged, and resuspended in PBS:matrigel (1:1) at 1×10^7 cell/ml.
One of the tumor cell lines used is the colon line SW620. Tumors are initiated by subcutaneous injection of a cell suspension into the right flank of each mouse. The inoculum consists of 2×10^6 cells/mouse/ 0.2 ml in PBS:matrigel (1:1).
as §8, §9
Drug therapy begins when the average tumor size is approximately 40-50 mg, which usually is day 7 after implant. […] Drugs are administered at 3 or 4 dose-levels based upon the previously-determined maximally tolerated dose. […]

[5] = Table 3, read-out: Raf Kinase activity

T1 sequence (P04049 whole entry): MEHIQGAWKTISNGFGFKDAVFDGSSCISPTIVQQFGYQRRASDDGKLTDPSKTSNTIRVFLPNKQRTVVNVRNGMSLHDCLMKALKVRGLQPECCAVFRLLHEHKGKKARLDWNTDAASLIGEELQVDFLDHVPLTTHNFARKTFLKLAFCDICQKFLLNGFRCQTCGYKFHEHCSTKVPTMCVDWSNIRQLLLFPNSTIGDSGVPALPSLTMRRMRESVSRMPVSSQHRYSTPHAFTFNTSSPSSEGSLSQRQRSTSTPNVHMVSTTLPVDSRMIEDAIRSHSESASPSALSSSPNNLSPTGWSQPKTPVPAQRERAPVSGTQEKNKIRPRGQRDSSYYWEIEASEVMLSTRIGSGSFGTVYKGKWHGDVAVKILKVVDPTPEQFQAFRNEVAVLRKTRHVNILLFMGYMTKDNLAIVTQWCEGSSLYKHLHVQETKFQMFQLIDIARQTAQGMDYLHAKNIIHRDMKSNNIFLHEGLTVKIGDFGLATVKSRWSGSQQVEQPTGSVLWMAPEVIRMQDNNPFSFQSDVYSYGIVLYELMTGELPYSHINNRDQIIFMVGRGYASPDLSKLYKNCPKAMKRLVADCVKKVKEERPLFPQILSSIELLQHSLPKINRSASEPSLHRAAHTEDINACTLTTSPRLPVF

IC50 (Human cRaf1; [5]) [µM] | IC50 (Human cRaf1; Table 4, read-out: Raf) [µM] | IC50 [1] [µM] | IC50 [2] [µM] | IC50 [3] [µM] | IC50 (PC-3 (prostate)) [µM] | IC50 [4] [µM] | Structure (SMILES) | Tumor Response % Inhibition @ mg/kg (HT-29 xenograft; 25 mg/kg) [%] | Tumor Response % Inhibition @ mg/kg (HT-29 xenograft; 5 mg/kg) [%] | Tumor Response % Inhibition @ mg/kg (SW620 xenograft) [%]
< 1 | < 0.5 | 0.5 to 5 | 0.5 to 5 | 0.5 to 5 | 0.5 to 5 | 0.5 to 5 | O=C1Nc2ccc3ncccc3c2C1=Cc1cc(Br)c(O)c(Br)c1 [Example 119, 1-(3,5-Dibromo-4-hydroxy-benzylidene)-1,3-dihydro-pyrrolo[3,2-f]quinolin-2-one] | – | – | –
< 1 | < 0.5 | 5 to 50 | 5 to 50 | 5 to 50 | 5 to 50 | 5 to 50 | CCOc1cc(C=C2C(=O)Nc3ccc(C(=O)c4ccccc4)cc32)cc(Br)c1O [Example 8, 5-Benzoyl-3-(3-bromo-5-ethoxy-4-hydroxy-benzylidene)-1,3-dihydro-indol-2-one] | – | – | –
1 to 10 | 0.5 to 5 | 5 to 50 | 5 to 50 | 5 to 50 | 5 to 50 | 5 to 50 | NCc1ccc2c(c1)C(=Cc1cc(Br)c(O)c(Br)c1)C(=O)N2 [Example 25, 5-Aminomethyl-3-(3,5-dibromo-4-hydroxy-benzylidene)-1,3-dihydro-indol-2-one] | – | – | –
< 1 | < 0.5 | 0.5 to 5 | 5 to 50 | 0.5 to 5 | – | 0.5 to 5 | O=C1Nc2ccc3ncsc3c2C1=Cc1cc(Br)c(O)c(Br)c1 [Example 121, 8-(3,5-Dibromo-4-hydroxy-benzylidine)-6,8-dihydro-1-thia-3,6-diaza-as-indacen-7-one] | – | – | –
< 1 | < 0.5 | 0.5 to 5 | – | 0.5 to 5 | – | 0.5 to 5 | Cn1nnc(-c2ccc3c(c2)C(=Cc2cc(Br)c(O)c(Br)c2)C(=O)N3)n1 [Example 143, 3-(3,5-Dibromo-4-hydroxy-benzylidene)-5-(2-methyl-2H-tetrazol-5-yl)-1,3-dihydro-indol-2-one] | – | – | –
< 1 | < 0.5 | 5 to 50 | 5 to 50 | 5 to 50 | 5 to 50 | 5 to 50 | N#Cc1ccc2c(c1)C(=Cc1cc(Br)c(O)c(Br)c1)C(=O)N2 [Example 1, 3-(3,5-Dibromo-4-hydroxy-benzylidine)-2-oxo-2,3-dihydro-1H-indole-5-carbonitrile] | – | – | –

More lines, now with the values behind:

Structure (SMILES) | IC50 (Human cRaf1; [5]) [µM] | IC50 (Human cRaf1; Table 4, read-out: Raf) [µM] | IC50 [1] [µM] | IC50 [2] [µM] | IC50 [3] [µM] | IC50 (PC-3 (prostate)) [µM] | IC50 [4] [µM] | Tumor Response % Inhibition @ mg/kg (HT-29 xenograft; 25 mg/kg) [%] | Tumor Response % Inhibition @ mg/kg (HT-29 xenograft; 5 mg/kg) [%] | Tumor Response % Inhibition @ mg/kg (SW620 xenograft) [%]
O=C1Nc2cc(Br)ccc2C1=Cc1cc(Cl)c(O)c(Cl)c1 [Example 133, 6-Bromo-3-(3,5-dichloro-4-hydroxy-benzylidene)-1,3-dihydro-indol-2-one] | < 1 | < 0.5 | 5 to 50 | 5 to 50 | 0.5 to 5 | 5 to 50 | 0.5 to 5 | – | – | –
Cc1nc(-c2ccc3c(c2)C(=Cc2cc([N+](=O)[O-])c(O)c([N+](=O)[O-])c2)C(=O)N3)cs1 [Example 130, 3-(3,5-Dinitro-4-hydroxy-benzylidene)-5-(2-methyl-thiazol-4-yl)-1,3-dihydro-indol-2-one] | < 1 | < 0.5 | 5 to 50 | 5 to 50 | 5 to 50 | > 50 | > 50 | – | – | –
O=C1Nc2ccc(C(=O)CCl)cc2C1=Cc1cc(Br)c(O)c(Br)c1 [Example 84, 5-(2-Chloro-acetyl)-3-(3,5-dibromo-4-hydroxy-benzylidene)-1,3-dihydro-indol-2-one] | < 1 | – | – | – | – | – | – | 50 | – | –
Cc1nc(-c2ccc3c(c2)C(=Cc2cc(Br)c(O)c(Br)c2)C(=O)N3)cs1 [Example 2, 3-(3,5-Dibromo-4-hydroxy-benzylidene)-5-(2-methyl-thiazol-4-yl)-1,3-dihydro-indol-2-one] | < 1 | < 0.5 | 0.5 to 5 | 0.5 to 5 | 0.5 to 5 | 5 to 50 | 0.5 to 5 | – | 50 | –
CCN(CC)CC(=O)c1ccc2c(c1)C(=Cc1cc(Cl)c(O)c(Cl)c1)C(=O)N2 [Example 85, 3-(3,5-Dichloro-4-hydroxy-benzylidene)-5-(2-diethylamino-acetyl)-1,3-dihydro-indol-2-one] | < 1 | – | – | – | – | – | – | – | – | 40
